The values below come from patent US4772594A, “Prodrug compounds, process for the preparation thereof and sustained release preparation comprising the same” (Fujisawa Pharmaceutical Co., Ltd., priority 1986, dated 1988).

The subject of series [1] is Mouse leukemia cell L 1210. Briefly: Anti tumor test 1: survival of mice implanted with L 1210 leukemia. Particulars: i.v. BHAC aqueous solution; for T/C: mean survival time vs control. It is filed as in vivo. An excerpt:
The mixture of chloroform and methanol (8:2 V/V) containing egg yolk lecithin (245 μmole), egg yolk sphingomyelin (105 μmole) and Cytarabine prodrug (Example 8) (87.5 and 262.5 μmole respectively) was taken in a roundbottom flask. Liposome suspensions containing Cytarabine prodrug (Concentration: 10 and 20 μmole/ml respectively) were obtained in a similar manner to that of the above-mentioned method. Mouse leukemia cell L 1210 (10^5 cells) were implanted intraperitoneally into BDF female mice (7 weeks).
After 24 hours after inoculation, Cytarabine aqueous solution (dose: 1000 and 3000 μmole/kg respectively), above-mentioned liposome suspension containing Cytarabine prodrug (dose: 100 and 300 μmole/kg respectively)and aqueous solution of N^4 -behenoyl-1-β-arabinofuranosylcytosine (hereinafter referred to as BHAC) which is a known compound as Cytarabine prodrug and is shown by the following structure (dose: 100 and 300 μmole/kg respectively) were administered intravenously to the mouse at a volume of 0.2 ml or 0.3 ml (in case the administration at the dose of 300 μmole/kg of Cytarabine prodrug) per 20 g of mouse body weight. After the treatment, survival of the mice was recorded. [drawing 9]

Series [2] can be described thus: Conversion Test 1: conversion half life of prodrug to parent compound in rat serum. It is filed as in vitro ADME. Particulars: rat, serum; for half-life: Half life (t 1/2). Here is the method: Chloroform solution containing egg yolk lecithin (84 μmole), egg yolk sphingomyelin (36 μmole) and Mitomycin C prodrug ( 6 μmole) obtained in the below-mentioned Example 1 or 2 was poured into a round-bottom flask and evaporated to dryness.
To this were added sodium cholate (258 mg) and pH 7.4 phosphate buffered saline (hereinafter referred to as PBS) (4.8 ml) and the mixture was agitated to give a clear purple solution.
Sodium cholate was removed from the solution by the Lipoprep dialyzer (detergent removal apparatus prepared by Diachema Co., Ltd.) to give a liposome suspension containing Mitomycin C prodrug.
Chloroform solution containing egg yolk lecithin (70 μmole), egg yolk sphingomyelin (30 μmole) and FR900482 substance prodrug (Example 6)(5 μmole) was poured into a round-bottom flask and a liposome suspension containing FR900482 substance prodrug was obtained in a similar manner to that of above-mentioned method.
Above-mentioned two liposome suspensions containing Mitomycin C prodrug were each diluted with PBS at 2.5 times.
The liposome suspension containing FR900482 substance prodrug was diluted with PBS to obtain the drug concentration of 0.5 μmole/ml and was filtered through millex-GV (trademark: prepared by Millipore Co., Ltd.) filter (0.22μ).
After the liposome suspension and ethanol solution of each prodrug (0.5 ml) were added to mouse, rat or human serum (4.5 ml, 37° C.), samples were taken periodically and the concentration of each prodrug was determined by high-performance liquid chromotography.
Conversion half lives (t 1/2) of each prodrug to each parent compound in various kinds of serum were calculated by the concentration of each prodrug remaining at each time.

Series [3] is described as follows: Bioavailability Test 3: blood concentration after i.v. emulsion or aqueous solution in mice. Particulars: mouse, iv, 0.8 umol/animal, read-out: Blood concentration of Mitomycin C Prodrug (Example 1). The format is in vivo, ICR female mice. Here is the method:
The liposome suspension containing Mitomycin C prodrug (Example 1), which was prepared in the above Bioavailability Test 1, was diluted with PBS at the concentration of Mitomycin C prodrug of 2.5 μmole/ml and was filtered through a polycarbonate membrane (0.1μ). 0.2 ml of PBS solution of Mitomycin C or the liposome suspension containing Mitomycin C prodrug was administered intravenously to ICR female mice (8 weeks, body weight: about 25 g, 3 per one group) respectively, and the blood samples were withdrawn by cardiac puncture under anesthesia. The blood concentrations of Mitomycin C and Mitomycin C prodrug were determined in accordance with the same procedures as described in Bioavailability Test 1.
Each chloroform solution of Mitomycin C prodrug (Example 1) (4 μmole), Panacete 800 (trademark, prepared by Nihon Yushi Co., Ltd.) (40 mg), egg yolk lecithin (14 mg) and HCO-60 (trademark, prepared by Nikko Chemicals Co., Ltd.) (8 mg) was combined in a round-bottom flask and evaporated to dryness. To this was added PBS (1 ml) and emulsified with a sonicator to give an emulsion containing Mitomycin C prodrug. Each chloroform solution of liitomycin C prodrug (Example 1) (4 μmole) and HCO-60 (24 mg) was combined in a roundbottom flask and evaporated to dryness. The residue was dispersed in 1 ml of PBS and agitated vigorously to yield a clear solution. 0.2 ml of each preparations thus obtained which contained the prodrug at 4 μmole/ml, was administered to mice and the blood concentrations of Mitomycin C and Mitomycin C prodrug were determined according to the same procedures as described in Bioavailability Test 2.

Series [4] is described as follows: Toxicity test: body weight change after i.v. administration to mice. Particulars: mouse. The format is in vivo, ICR male mice. Here is the method:
Each chloroform solution of egg yolk lecithin (126 μmole), egg yolk sphingomyelin (54 μmole) and Mitomycin C prodrug (Example 1) (3.75, 24 and 37.5 μmole respectively) was combined in a round-bottom flask and evaporated to dryness. Liposome suspensions containing Mitomycin C prodrug were obtained according to the same procedures as described above. The liposome suspensions were diluted with PBS to obtain the desired drug concentration (0.15, 0.96 and 1.50 mg/ml as Mitomycin C) and were filtered through polycarbonate membranes (0.1 μ). PBS solution of Mitomycin C (dose: 1.0 and 6.4 mg/kg/day respectively) or above-mentioned liposome suspension containing Mitomycin C prodrug (dose: 1.0, 6.4 and 10 mg/kg/day as Mitomycin C) were administered intravenously to ICR male mice (6 week) at Day 1, 3 and 5 and the body weight change was recorded from Day 1 to 15.

The nature of series [5]: Bioavailability Test 1: blood concentration after i.v. administration to rats. Also noted: species or system SD male rats. Particulars: rat, in vivo, iv. Here is the method:
Chloroform solution (14.3 ml) containing egg yolk lecithin (126 μmole), egg yolk sphingomyelin (54 μmole) and Mitomycin C prodrug (Example 1) (24 μmole) was poured into a round-bottom flask and evaporated at one hour. To this were added sodium cholate (194 mg) and PBS (6 ml) and agitated. A liposome suspension containing Mitomycin C prodrug was obtained according to a similar manner to that of above-mentioned method. The liposome suspension thus prepared was diluted with PBS to obtain the drug concentration of 3.0 μmole/ml and was filtered through a polycarbonate membrane (0.1 μ). 1.0 ml of PBS solution of Mitomycin C or the liposome suspension containing Mitomycin C prodrug prepared by the above-mentioned method was administered intravenously to SD male rats (7 weeks, body weight: about 300 g, 4 per one group) and blood samples were withdrawn at appropriate intervals from subclavian vein. The plasma samples were deproteinzed and the concentration of Mitomycin C was determined by high-performance liquid chromatography.
While Mitomycin C prodrug in the blood was determined by high-performance liquid chromatography after extraction with ethanol from the freeze-dried blood samples.

Series [6] is described as follows: Bioavailability Test 2: blood concentration after i.v. administration to mice. The format is in vivo, ICR female mice. Particulars: iv, mouse, i.v. PBS solution of Mitomycin C. On the procedure: The blood concentrations of Mitomycin C and Mitomycin C prodrug were determined in accordance with the same procedures as described in Bioavailability Test 1.
Setting [7] is: i.v. aqueous solution (4 μmole/ml, 0.2 ml).
[8] abbreviates: i.v. emulsion (4 μmole/ml, 0.2 ml).

Like-named read-outs stand apart in the source and are kept apart here.

In general, T/C refers to the ratio of treated to control. For `CCCCCCCCCCCCCCCCCCCCCC(=O)Nc1ccn([C@@H]2O[C@H](CO)[C@@H](O)[C@@H]2O)c(=O)n1` [BHAC, N^4-behenoyl-1-β-arabinofuranosylcytosine], in series [1] (100 μmole/kg), the Mean survival time amounted to 11.0 ± 0.3 days and the T/C worked out at 122%. Also, in series [1] (300 μmole/kg), the Mean survival time is 15.3 ± 0.5 days and the T/C is recorded as 170%.

Usually half-life stands for the time in which the quantity being followed falls by half. Turning to `CO[C@@]12[C@H](COC(N)=O)C3=C(C(=O)C(C)=C(N)C3=O)N1C[C@H]1[C@@H]2N1C(=O)CNC(=O)O[C@H]1CC[C@@]2(C)C(=CC[C@H]3[C@@H]4CC[C@H]([C@H](C)CCCC(C)C)[C@@]4(C)CC[C@@H]32)C1` [Example 1, [1aS-(1aα, 8β, 8aα, 8bα)]-6-amino-8-carbamoyloxymethyl-N'-[N-(cholest-5-en-3β-oxycarbonyl)glycyl]-1,1a,2,8,8a,8b-hexahydro-8a-methoxy-5-methy-aziridino[2',3':3,4]pyrrolo [1,2-a]indole-4,7-dione], in series [2], the “Half life (t 1/2)” value worked out at 10.0 h and the half-life is 5.7 h. In series [3] (setting [7]), the concentration at 1 h was found to be 186 µM, the concentration at 4 h is 73.9 µM and the concentration at 7 h came out at 22.2 µM. Besides, in series [3] (setting [8]), the concentration at 1 h was 251 µM, the concentration at 4 h is 81.6 µM and the concentration at 7 h turned out to be 39 µM. In addition, in series [4] (i.v. liposome suspension, 1.0 mg/kg/day as Mitomycin C at Day 1, 3, 5, 1 day), the Body weight amounted to 32.78 g. The compound further returned a Body weight in series [4] (i.v. liposome suspension, 6.4 mg/kg/day as Mitomycin C at Day 1, 3, 5, 1 day) of 33.86 g. This compound also had a Body weight in series [4] (i.v. liposome suspension, 10.0 mg/kg/day as Mitomycin C at Day 1, 3, 5, 1 day) of 35.14 g.

Take `CO[C@@]12[C@H](COC(N)=O)C3=C(C(=O)C(C)=C(N)C3=O)N1C[C@H]1[C@@H]2N1C(=O)CO[C@H]1CC[C@@]2(C)C(=CC[C@H]3[C@@H]4CC[C@H]([C@H](C)CCCC(C)C)[C@@]4(C)CC[C@@H]32)C1` [Example 2, [1aS-(1aα, 8β, 8aα,8bα)]-6-amino-8-carbamoyloxymethyl-N-(cholest-5-en-3β-oxyacetyl) 1,1a,2,8,8 a,8b-hexahydro-8a-methoxy-5-methyl-aziridino [2',3':3,4]pyrrolo[1,2-a]indole-4,7-dione]: in series [2], the “Half life (t 1/2)” value was 17.3 h and the half-life was 9.3 h.

In the case of `CO[C@@]12[C@H](COC(N)=O)C3=C(C(=O)C(C)=C(N)C3=O)N1C[C@@H]1N[C@@H]12` [Mitomycin C], the concentration at 5 min was 10.7 µM in series [5] and 9.15 µM in series [6] (5 min). The concentration at 0.25 h is 5.54 µM in series [5] and 2.76 µM in series [6] (15 min). The concentration at 0.5 h in series [5] worked out at 3.32 µM; in series [6] (30 min), 1.57 µM. Further, the results for the concentration at 1 h in series [5] and in series [6] (1 hr) were 1.04 µM and 0.11 µM, respectively. In addition, the concentration at 2 h in series [5] was determined as 0.11 µM. Besides, the Body weight in series [4] (i.v. PBS solution, 1.0 mg/kg/day at Day 1, 3, 5, 1 day) came to 33.78 g; in series [4] (i.v. PBS solution, 1.0 mg/kg/day at Day 1, 3, 5, 5 days), 33.86 g; in series [4] (i.v. PBS solution, 1.0 mg/kg/day at Day 1, 3, 5, 15 days), 35.26 g; in series [4] (i.v. PBS solution, 6.4 mg/kg/day at Day 1, 3, 5, 1 day), 35.54 g; in series [4] (i.v. PBS solution, 6.4 mg/kg/day at Day 1, 3, 5, 5 days), 29.36 g. Besides, in series [4] (i.v. PBS solution, 6.4 mg/kg/day at Day 1, 3, 5, at 8 days), the “Death (in body weight column, 15 days)” value is on record as “All died”.
